From patent publication US6677277B1, “Substituted sulphonyl amino(thio)carbonyl compounds and their use as herbicides” (Bayer Aktiengesellschaft, priority 1996, dated 2004) come the findings set out here.

Assay type in all cases: in vivo
One assay relates to Cotton. Put plainly: Pre-emergence test/greenhouse. Particulars: 125 g ai./ha, after three weeks. The essentials:
(§1)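 Percent damage compared with untreated development was assessed after three weeks. Active compound, formulated in acetone and alkylaryl polyglycol ether then diluted in water, was sprayed onto the soil surface about 24 hours after sowing.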

Assay [1] deals with Alopecurus. Put plainly: Pre-emergence test/greenhouse. Particulars: 125 g ai./ha, after three weeks. Put shortly:
as §1

A further assay relates to Viola. The assay is described as follows: Pre-emergence test/greenhouse. Particulars: 125 g ai./ha, after three weeks. The essentials: as §1
The subject of another assay is Matricaria. The assay is described as follows: Pre-emergence test/greenhouse. The conditions noted are these: 125 g ai./ha, after three weeks. The essentials: as §1
Assay [2] concerns Sorghum. The assay is described as follows: Pre-emergence test/greenhouse. The conditions noted are these: 125 g ai./ha, after three weeks. Put shortly:
as §1

A further assay deals with Maize. Put plainly: Pre-emergence test/greenhouse. The conditions noted are these: 125 g ai./ha, after three weeks. Put shortly:
as §1

Another assay has as its system Amaranthus. Put plainly: Pre-emergence test/greenhouse. The conditions noted are these: 125 g ai./ha, after three weeks. Put shortly: as §1
Another assay relates to Chenopodium. Put plainly: Pre-emergence test/greenhouse. Particulars: 125 g ai./ha, after three weeks. Put shortly: as §1
Assay [3] relates to Alopecurus. The assay is described as follows: Post-emergence test/greenhouse. The conditions noted are these: 60 g ai./ha, after three weeks. Put shortly: (§2)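 Three weeks after spraying 5–15 cm plants with water-diluted acetone/alkylaryl polyglycol ether formulations (1000 l/ha carrier, rate per unit area), damage is scored in % relative to untreated development.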
The test system of another assay is Ipomoea. Put plainly: Post-emergence test/greenhouse. The conditions noted are these: 60 g ai./ha, after three weeks. Put shortly: as §2
In assay [4] the test system is Sorghum. The assay is described as follows: Post-emergence test/greenhouse. The conditions noted are these: post-emergence, 60 g ai./ha, after three weeks. Put shortly:
as §2

The subject of another assay is Wheat. Put plainly: Post-emergence test/greenhouse. Particulars: 60 g ai./ha, after three weeks. The essentials: as §2
The subject of another assay is Lolium. Put plainly: Post-emergence test/greenhouse. Particulars: 60 g ai./ha, after three weeks. The essentials:
as §2

Another assay concerns Solanum. The assay is described as follows: Post-emergence test/greenhouse. The conditions noted are these: post-emergence, 60 g ai./ha, after three weeks. Put shortly:
as §2

In another assay the test system is Stellaria. Put plainly: Post-emergence test/greenhouse. The conditions noted are these: 60 g ai./ha, after three weeks. The essentials: as §2
The subject of assay [5] is weeds. The assay is described as follows: Post-emergence test. The conditions noted are these: cf. Tables B-1 to B-4. Put shortly: as §2
The test system of assay [6] is weeds. Put plainly: Pre-emergence test. Particulars: cf. Tables A-1 to A-5. Put shortly:
as §1

Take `COc1cccc(SC(C)C)c1S(=O)(=O)NC(=O)n1nc(OC)n(C)c1=O` [Example 24]: the “% damage, Cotton” value with Cotton amounted to 0%. For the same compound, the “% damage, Alopecurus” value with Alopecurus [1] is 95%; with Alopecurus [3] it was 90%. Further, in the assay on Viola, the “% damage, Viola” value is reported as 100%. Also, in the assay with Matricaria, the “% damage, Matricaria” value is 70%. In addition, the figures for the “% damage, Sorghum” value in the assay on Sorghum [2] and with Sorghum [4] were 70% and 90%, respectively. The “% damage, Maize” value with Maize worked out at 0%. Further, the “% damage, Amaranthus” value in the assay on Amaranthus is 100%. In addition, in the assay with Chenopodium, the “% damage, Chenopodium” value is 100%. Further, the “% damage, Ipomoea” value in the assay with Ipomoea amounted to 90%. In the assay on Wheat, the “% damage, Wheat” value is on record as 15%. In the assay on Lolium, the “% damage, Lolium” value came out at 60%. For the same compound, in the assay on Solanum, the “% damage, Solanum” value was determined as 95%. The “% damage, Stellaria” value in the assay with Stellaria came out at 95%. Moreover, the activity against weeds result with weeds [5] and with weeds [6] was “very strong activity” throughout.
